Results on one compound are retold here after patent US20260115186A1, “PIPERIDINE UREA DERIVATIVES FOR CANCER THERAPY” (NEUROPN THERAPEUTICS INC., priority 2022, published 2026).

Structures are written as SMILES.

The test system of the data set is adult zebrafish, paclitaxel induced nerve damage. The data set is described as follows: Paclitaxel-induced peripheral neuropathy in adult zebrafish (tail fin stimulation). The settings on record: 3 μL of 10-μM paclitaxel, four consecutive days (Days 2-5), FIG. 9. The data set is classed as in vivo. How it is done:
Method to evaluate potential of compounds of Formula 1 to reduce or block chemotherapy-induced peripheral neuropathy—Animal (zebrafish) model described below and in literature (Lisse T S et al PNAS 113 (15) E2189-E2198) was used to evaluate potential of compounds of Formula 1 to reduce or block neuronal damage induced by chemotherapeutics.
To induce peripheral neuropathy in adult zebrafish, 3 μL of a 10-μM paclitaxel solution in 0.15% DMSO was administered with a 33 gauge Hamilton Syringe for a zebrafish with average ˜200 mg body weight. Fish were treated with vehicle alone or paclitaxel for four consecutive days (Days 2-5) or paclitaxel with Compound A (10- or 30 ng). Compound A was dosed orally by mixing with the fish feed pellets. Fishes were conditioned to consume three pellets a day. […] To prepare test compound infused pellet, a known quantity of the compound was mixed with the known quantity of the feed powder and were extruded in to 4 mg pellet containing the desired administration dose per pellet. Concentration of test compound dosed per fish were controlled by the number of pellets and the quantity of compound per pellet. […]
To determine the peripheral nerve damage, fish were wrapped in plastic foil until calm, and the distal tail fin was stimulated with an insect pin until twitching of the fish was observed. Number of stimuli until twitch was recorded.

For the compound `CC(=O)O[C@H]1C(=O)[C@@]2(C)[C@H]([C@H](OC(=O)c3ccccc3)[C@]3(O)C[C@H](OC(=O)[C@H](O)[C@@H](NC(=O)c4ccccc4)c4ccccc4)C(C)=C1C3(C)C)[C@]1(OC(C)=O)CO[C@@H]1C[C@@H]2O` [paclitaxel], the “peripheral nerve damage (number of stimuli until twitch) compared to vehicle alone” value was “significant nerve damage”.
